Laboratory results as given in ChEMBL document CHEMBL1201862, “PubChem BioAssay data set” (2004).
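Protocol summary: plate cells (96-well), add compound at 5 concentrations, incubate 48 h, interpolate endpoints linearly. The concentration for 50% growth inhibition is given as GI50.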 The source made the active and inactive calls. No stated cut-off is given here; in the data, active = GI50 up to about 1.1 µM and inactive = higher.

How the values were obtained:
Test in all cases: NCI tumour cell line growth inhibition, 48 h
CAKI-1 = tested on: CAKI-1
CCRF-CEM = tested on: CCRF-CEM
HCT-15 = tested on: HCT-15
IGROV-1 = tested on: IGROV-1
MOLT-4 = tested on: MOLT-4
NCI-H226 = tested on: NCI-H226
NCI-H460 = tested on: NCI-H460
NCI-H522 = tested on: NCI-H522
OVCAR-5 = tested on: OVCAR-5
RPMI-8226 = tested on: RPMI-8226
SF-295 = tested on: SF-295
SK-MEL-5 = tested on: SK-MEL-5
SNB-75 = tested on: SNB-75
UO-31 = tested on: UO-31
SK-MEL-28 = tested on: SK-MEL-28
SK-MEL-2 = tested on: SK-MEL-2

| SMILES | GI50 (CAKI-1) | GI50 (CCRF-CEM) | GI50 (HCT-15) | GI50 (IGROV-1) | GI50 (MOLT-4) | GI50 (NCI-H226) | GI50 (NCI-H460) | GI50 (NCI-H522) | GI50 (OVCAR-5) | GI50 (RPMI-8226) | GI50 (SF-295) | GI50 (SK-MEL-5) | GI50 (SNB-75) | GI50 (UO-31) | GI50 (SK-MEL-28) | GI50 (SK-MEL-2) |
| --- | --- | --- | --- | --- | --- | --- | --- | --- | --- | --- | --- | --- | --- | --- | --- | --- |
| OC1(c2ccccc2)OC(C#Cc2ccccc2)(c2ccccc2)c2ccccc21 (centres undefined) | 3.85 µM (inactive) | 2.73 µM (inactive) | 3.44 µM | 11 µM (inactive) | 2.08 µM (inactive) | 2.62 µM (inactive) | 4.47 µM (inactive) | 7.48 µM (inactive) | 2.79 µM (inactive) | 1.94 µM (inactive) | 5.57 µM (inactive) | 7.89 µM (inactive) | 6.1 µM (inactive) | 1.71 µM (inactive) | – | – |
| CCOC(=O)c1c2cccccc2n2c(=O)cc(C)nc12 | > 100 µM (inactive) | > 100 µM (inactive) | > 100 µM | > 100 µM (inactive) | > 100 µM (inactive) | > 100 µM (inactive) | > 100 µM (inactive) | > 100 µM (inactive) | > 100 µM (inactive) | > 100 µM (inactive) | > 100 µM (inactive) | – | – | > 100 µM (inactive) | > 100 µM (inactive) | > 100 µM (inactive) |
| CCCCCCCCCc1cc(=O)c2ccc(OCc3ccccc3)cc2o1 | 2.92 µM (inactive) | 65.2 µM (inactive) | > 100 µM | > 100 µM (inactive) | – | 34.7 µM (inactive) | 64.4 µM (inactive) | > 100 µM (inactive) | > 100 µM (inactive) | – | > 100 µM (inactive) | 97.9 µM (inactive) | 30.8 µM (inactive) | > 100 µM (inactive) | > 100 µM (inactive) | 43.1 µM (inactive) |
| CC(C)(C)c1cc(CCC(=O)Nc2ccc(Cl)cc2Cl)nc(N)n1 | > 100 µM (inactive) | > 100 µM (inactive) | > 100 µM | > 100 µM (inactive) | > 100 µM (inactive) | > 100 µM (inactive) | > 100 µM (inactive) | – | > 100 µM (inactive) | – | > 100 µM (inactive) | > 100 µM (inactive) | – | > 100 µM (inactive) | > 100 µM (inactive) | > 100 µM (inactive) |
| CC1CCC23COC(=O)C2C(O)CCC3C1(C)CC(O)c1ccoc1 (centres undefined) | – | > 100 µM (inactive) | > 100 µM | > 100 µM (inactive) | > 100 µM (inactive) | > 100 µM (inactive) | > 100 µM (inactive) | > 100 µM (inactive) | > 100 µM (inactive) | – | > 100 µM (inactive) | > 100 µM (inactive) | 41.3 µM (inactive) | > 100 µM (inactive) | > 100 µM (inactive) | > 100 µM (inactive) |
| O=C(O)C1=C(C(=O)Nc2ccccc2)C2C=CC1C2 (centres undefined) | – | > 100 µM (inactive) | > 100 µM | > 100 µM (inactive) | > 100 µM (inactive) | – | > 100 µM (inactive) | – | > 100 µM (inactive) | > 100 µM (inactive) | > 100 µM (inactive) | > 100 µM (inactive) | > 100 µM (inactive) | > 100 µM (inactive) | > 100 µM (inactive) | – |
| COc1cc(C2Oc3cc(-c4oc5cc(O)cc(O)c5c(=O)c4O)ccc3OC2CO)ccc1O (centres undefined) [DEHYDROSILYLBIN] | 14 µM (inactive) | 5.77 µM (inactive) | 9.31 µM | 10.9 µM (inactive) | 3.9 µM (inactive) | 8.51 µM (inactive) | 3.72 µM (inactive) | 3.03 µM (inactive) | – | 4.41 µM (inactive) | 10.7 µM (inactive) | 15.4 µM (inactive) | 5 µM (inactive) | 2.64 µM (inactive) | 10.1 µM (inactive) | 7.38 µM (inactive) |
| Nc1nc(N)c(N=O)c(Nc2ccc(I)cc2)n1 | – | 13.8 µM (inactive) | 12.2 µM | 3.94 µM (inactive) | 3.98 µM (inactive) | – | 27.5 µM (inactive) | 12.1 µM (inactive) | 19.2 µM (inactive) | 20.9 µM (inactive) | 28.6 µM (inactive) | 13.5 µM (inactive) | – | 18 µM (inactive) | 14 µM (inactive) | 15.3 µM (inactive) |
| O=C(CC(=O)N1N=C(n2ccc3ccccc32)CC1c1ccccc1)Nc1ccc(Cl)cc1 (centres undefined) | – | > 100 µM (inactive) | > 100 µM | > 100 µM (inactive) | 8.39 µM (inactive) | – | > 100 µM (inactive) | > 100 µM (inactive) | > 100 µM (inactive) | 52.1 µM (inactive) | > 100 µM (inactive) | – | 59.7 µM (inactive) | > 100 µM (inactive) | > 100 µM (inactive) | > 100 µM (inactive) |
| Cc1nc(=O)n2c(C)n[nH]c2c1C(=O)Nc1cc(Cl)cc(Cl)c1 | 36.9 µM (inactive) | 20.2 µM (inactive) | 19.3 µM | 24.5 µM (inactive) | 26.9 µM (inactive) | 24.8 µM (inactive) | 26.9 µM (inactive) | 6.01 µM (inactive) | 65.3 µM (inactive) | 9.91 µM (inactive) | 31.4 µM (inactive) | 16.1 µM (inactive) | 37.2 µM (inactive) | 20.4 µM (inactive) | 26.1 µM (inactive) | – |
| COC(=O)C(=O)C(C#N)c1ccc(Cl)c(Cl)c1 (centres undefined) | > 100 µM (inactive) | > 100 µM (inactive) | > 100 µM | > 100 µM (inactive) | > 100 µM (inactive) | > 100 µM (inactive) | – | > 100 µM (inactive) | – | > 100 µM (inactive) | > 100 µM (inactive) | > 100 µM (inactive) | 80 µM (inactive) | > 100 µM (inactive) | > 100 µM (inactive) | > 100 µM (inactive) |
| OCCC1(O)CCC(O)CC1 (centres undefined) | – | > 100 µM (inactive) | > 100 µM | > 100 µM (inactive) | > 100 µM (inactive) | > 100 µM (inactive) | > 100 µM (inactive) | > 100 µM (inactive) | > 100 µM (inactive) | > 100 µM (inactive) | > 100 µM (inactive) | > 100 µM (inactive) | 75.7 µM (inactive) | > 100 µM (inactive) | > 100 µM (inactive) | > 100 µM (inactive) |
| CC1CCCC(C(=O)/C(=C/c2cccc(Cl)c2)C(=O)C(=O)O)C1 (centres undefined) | 33.3 µM (inactive) | 19.3 µM (inactive) | 13.8 µM | 30.9 µM (inactive) | 19 µM (inactive) | > 100 µM (inactive) | 33 µM (inactive) | 0.0161 µM (active) | > 100 µM (inactive) | 14.7 µM (inactive) | 50.4 µM (inactive) | 68.2 µM (inactive) | 29.9 µM (inactive) | 61.2 µM (inactive) | 37 µM (inactive) | – |
| CC(O)(c1ccc(OCCC[N+](C)(C)C)cc1)C(C)(O)c1ccc(OCCC[N+](C)(C)C)cc1 (centres undefined) | > 100 µM (inactive) | > 100 µM (inactive) | > 100 µM | > 100 µM (inactive) | – | > 100 µM (inactive) | > 100 µM (inactive) | > 100 µM (inactive) | > 100 µM (inactive) | – | > 100 µM (inactive) | – | > 100 µM (inactive) | > 100 µM (inactive) | > 100 µM (inactive) | > 100 µM (inactive) |
| Cn1c(=O)c(C2c3ccccc3Oc3c2c(=O)n(C)c2ccccc32)c(O)c2ccccc21 (centres undefined) | 46.9 µM (inactive) | – | 32.4 µM | 59.2 µM (inactive) | 39.4 µM (inactive) | 46 µM (inactive) | > 100 µM (inactive) | 24.3 µM (inactive) | > 100 µM (inactive) | 38.5 µM (inactive) | 54.5 µM (inactive) | > 100 µM (inactive) | 40.9 µM (inactive) | 73.5 µM (inactive) | 86.9 µM (inactive) | 61.7 µM (inactive) |
